According to US10035810B2, “5,6-dihydro-4H-benzo[b]thieno-[2,3-d]azepine derivative” (PULMOCIDE LIMITED, priority 2014, dated 2018):

How the values were obtained:
RSV A2 F-protein = assay: RSV F protein expression in BEAS2B bronchial epithelial cells; format: cell-based; details: human respiratory syncytial virus, BEAS-2B, 72 h, read-out: RSV A2 F-protein IC50
Description: Assessment of RSV F Protein Expression in BEAS2B Bronchial Epithelial Cells
An early event which follows the infection of epithelial cells by RSV is the expression of RSV F-protein on the cells' surface. BEAS2B cells (SV40-immortalised human bronchial epithelial cell line) were grown in 96 well plates. Once more than 70% confluent, cells were infected with RSV A2 (#0709161v, NCPV, Public Health England, Wiltshire) at an MOI of 0.01 in clear RPMI-1640 medium (Life technologies, Paisley, UK) with 2% FBS (Life technologies, Paisley, UK), and incubated for 3 days (37° C./5% CO2).
Supernatant was aspirated and the cells were fixed with 4% formaldehyde (100 μL in PBS solution) for 20 min, washed 3 times with washing buffer (200 μL; PBS containing 0.05% Tween-20) and incubated with blocking solution (100 μL; 5% Marvel milk in PBS) for 1 hr. […] The resultant signal was determined colourimetrically (OD: 450 nm with a reference wavelength of 655 nm) in a microplate reader (Multiskan FC®, ThermoFisher Scientific). […] After washing with PBS (200 μL) three times, 1% SDS (100 μL) was added to each well, and plates were shaken lightly for 1 hr prior to reading the absorbance at 595 nm. The measured OD450-655 readings were corrected for cell number by dividing the OD450-655 by the OD595 readings. […]

hRSV/A/Long = assay: RSV infection in cotton rats: virus titre in lung homogenate (plaque assay); format: in vivo, cotton rats (Sigmodon hispidus)
RSV A2 = assay: RSV infection in mice: virus titre in lung homogenate (plaque assay); format: in vivo, mice (male BALB/C); details: RSV A2 infected mice
Description: Non-fasted mice (male BALB/C, 20-30 g) were infected intranasally with RSV A2 or virus diluent (DMEM, 2% FBS, 12.5% sucrose) under isoflurane (5% in O2) anaesthesia. The A2 strain of RSV (50 uL of 1.3×10^6 PFU/mL: final 0.65×10^5 PFU/mouse) was instilled into each nostril in a drop wise fashion alternating between the two until a volume of 50 μL was delivered. Following infection each animal was weighed on a daily basis to monitor changes. Compound (I) was dissolved in 100% DMSO (at 20 mg/mL and/or 2 mg/mL), then diluted at 1:10 in isotonic saline to achieve 10% DMSO in all treatments. Formulations were then sonicated to produce a suspension. The suspension was administered intratracheally (20 μL) with a FMJ-250 PennCentury device or intranasally (40 μL) with a pipette on 1 day and 1 hr before infection (day 0), and then on days 1, 2 and 3 post infection. Four days after RSV challenge, the animals were euthanised (by intraperitoneal injection of a pentobarbitone overdose), the trachea cannulated and BALF extracted for total and differential cell counts. […]
Anti-RSV F-protein antibody [2F7] […] Plaques were counted by eye and confirmed using light microscopy, allowing the calculation of plaque forming units per mL of lung homogenate supernatant.

Cc1cnc(N2CC3(CCOCC3)C2)c(C(=O)Nc2ccc(C(=O)N3CCc4cc(C(=O)Nc5c(C)cccc5F)sc4-c4ccccc43)cc2)c1 [Compound (I), N-(2-fluoro-6-methylphenyl)-6-(4-(5-methyl-2-(7-oxa-2-azaspiro[3.5]nonan-2-yl)nicotinamido)benzoyl)-5,6-dihydro-4H-benzo[b]thieno[2,3-d]azepine-2-carboxamide]
IC50 (RSV A2 F-protein): 0.17 nM
Virus titre in the lungs (in words) (hRSV/A/Long; RSV A2 infected cotton rats): completely inhibited virus titre
Virus titre in lung homogenates (in words) (hRSV/A/Long; infected cotton rats, day 4): potent dose-dependent inhibition of virus titre
Virus titre in the lungs (in words) (RSV A2): completely inhibited virus titre
Viral titre in lung homogenates (in words) (RSV A2; intranasally or intratracheally): potent dose-dependent inhibition of viral titre
